Values quoted from earlier work as cited in patent US20070128260A1, “Aqueous polymer dispersions for stabilizing actives” (priority 2005, published 2007).
Counter-ions that a name gives are not always drawn. Like-named read-outs stand apart in the source and are kept apart here.

SMILES | water sol. (25° C.) | other results
Nc1ccn([C@@H]2CS[C@H](CO)O2)c(=O)n1 [Lamivudine] | – | water sol. (20° C.): 70 mg/mL
CC(C)CN(C[C@@H](O)[C@H](Cc1ccccc1)NC(=O)O[C@H]1CCOC1)S(=O)(=O)c1ccc(N)cc1 [Amprenavir] | 0.04 mg/mL | –
Cc1cn([C@H]2C[C@H](N=[N+]=[N-])[C@@H](CO)O2)c(=O)[nH]c1=O [Zidovudine] | 20.1 mg/mL | –
Nc1nc(NC2CC2)c2ncn([C@H]3C=C[C@@H](CO)C3)c2n1 [Abacavir sulfate] | 77 mg/mL | –
CC(=O)N[C@H]1[C@H]([C@H](O)[C@H](O)CO)OC(C(=O)O)=C[C@@H]1N=C(N)N [Zanamivir] | – | water sol. (20° C.): 18 mg/mL
CC(C)[C@H](N)C(=O)OCCOCn1cnc2c(=O)[nH]c(N)nc21 [valacyclovir] | 174 mg/mL | –
CC(C)CN(C[C@@H](OP(=O)(O)O)[C@H](Cc1ccccc1)NC(=O)O[C@H]1CCOC1)S(=O)(=O)c1ccc(N)cc1 [fosamprenavir] | 0.31 mg/mL | –
Nc1nc2c(ncn2COCCO)c(=O)[nH]1 [Acylovir] | – | water sol. (37° C.): 2.5 mg/mL
